Two compounds from ChEMBL document CHEMBL1144507, “Synthesis and antifungal activity of (Z)-5-arylidenerhodanines” (2007) can be followed below.

Each structure is given as a SMILES string. Converted amounts (≈) assume the structure as drawn. Bounds are passed on as bounds.

One experiment concerns Nannizzia gypsea. The experiment in a line: Antifungal activity against Microsporum gypseum C115 after 48 hrs. The format is functional.
Experiment [1] concerns Trichophyton rubrum. Nature of the experiment: Antifungal activity against Trichophyton rubrum C113 after 48 hrs. The format is functional.
Experiment [2] has as its system Trichophyton benhamiae. Nature of the experiment: Antifungal activity against Trichophyton mentagrophytes ATCC 9972 after 48 hrs. The format is functional, Arthroderma benhamiae. To be noted: ATCC 9972, 48 h.
For the next experiment, the system named is Candida albicans. Nature of the experiment: Antifungal activity against Candida albicans ATCC 10231 after 48 hrs. The format is functional. The conditions noted are these: ATCC 10231, 48 h.
The next experiment concerns Saccharomyces cerevisiae. The experiment in a line: Antifungal activity against Saccharomyces cerevisiae ATCC 9763 after 48 hrs. The format is functional. The conditions noted are these: ATCC 9763, 48 h.
In a further experiment the test system is Cryptococcus neoformans. The experiment in a line: Antifungal activity against Cryptococcus neoformans ATCC 32264 after 48 hrs. The format is functional. To be noted: ATCC 32264, 48 h.
The next experiment relates to Aspergillus niger. Nature of the experiment: Antifungal activity against Aspergillus niger ATCC 9029 after 48 hrs. The format is functional. The conditions noted are these: ATCC 9029, 48 h.
The subject of the next experiment is Aspergillus fumigatus. The experiment in a line: Antifungal activity against Aspergillus fumigatus ATCC 26934 after 48 hrs. The format is functional. The conditions noted are these: ATCC 26934, 48 h.
The next experiment concerns Aspergillus flavus. The experiment in a line: Antifungal activity against Aspergillus flavus ATCC 9170 after 48 hrs. The conditions noted are these: ATCC 9170, 48 h. Type of experiment: functional.
In experiment [3] the test system is Trichophyton rubrum. Nature of the experiment: Antifungal activity against Trichophyton rubrum C110 after 48 hrs. Type of experiment: functional.
Experiment [4] has as its system Trichophyton rubrum. Nature of the experiment: Antifungal activity against Trichophyton rubrum C135 after 48 hrs. The format is functional.
Experiment [5] relates to Trichophyton rubrum. The experiment in a line: Antifungal activity against Trichophyton rubrum C136 after 48 hrs. Type of experiment: functional.
For experiment [6], the system named is Trichophyton rubrum. Nature of the experiment: Antifungal activity against Trichophyton rubrum C137 after 48 hrs. Type of experiment: functional.
The test system of experiment [7] is Trichophyton rubrum. The experiment in a line: Antifungal activity against Trichophyton rubrum C139 after 48 hrs. The format is functional.
Experiment [8] deals with Trichophyton rubrum. The experiment in a line: Antifungal activity against Trichophyton rubrum C140 after 48 hrs. The format is functional.
Experiment [9] concerns Trichophyton benhamiae. Nature of the experiment: Antifungal activity against Trichophyton mentagrophytes C108 after 48 hrs. Type of experiment: functional, Arthroderma benhamiae.
Experiment [10] relates to Trichophyton benhamiae. The experiment in a line: Antifungal activity against Trichophyton mentagrophytes C364 after 48 hrs. Type of experiment: functional, Arthroderma benhamiae.
Experiment [11] concerns Trichophyton benhamiae. Nature of the experiment: Antifungal activity against Trichophyton mentagrophytes C539 after 48 hrs. The format is functional, Arthroderma benhamiae.
Experiment [12] relates to Trichophyton benhamiae. Nature of the experiment: Antifungal activity against Trichophyton mentagrophytes C738 after 48 hrs. Type of experiment: functional, Arthroderma benhamiae.
In experiment [13] the test system is Trichophyton benhamiae. Nature of the experiment: Antifungal activity against Trichophyton mentagrophytes C943 after 48 hrs. The format is functional, Arthroderma benhamiae.

For the compound `O=C1NC(=S)S/C1=C\c1ccccc1C(F)(F)F`, the minimum inhibitory concentration (MIC) (commonly the lowest concentration found to suppress growth) was found to be 3.9 µg/mL (≈ 13.5 µM) with Nannizzia gypsea; 3.9 µg/mL (≈ 13.5 µM) against Trichophyton rubrum [1]; 3.9 µg/mL (≈ 13.5 µM) in the experiment with Trichophyton benhamiae [2]; 250 µg/mL (≈ 864 µM) in the experiment on Candida albicans; 250 µg/mL (≈ 864 µM) with Saccharomyces cerevisiae; 15.6 µg/mL (≈ 53.9 µM) with Cryptococcus neoformans. For the same compound, the MIC against Aspergillus niger is over 250 µg/mL; against Aspergillus fumigatus it was over 250 µg/mL; in the experiment with Aspergillus flavus it was over 250 µg/mL; against Trichophyton rubrum [3] it was 3.9 µg/mL (≈ 13.5 µM); with Trichophyton rubrum [4], 3.9 µg/mL (≈ 13.5 µM); against Trichophyton rubrum [5], 3.9 µg/mL (≈ 13.5 µM). Moreover, the minimal inhibitory concentration (MIC) worked out at 1.95 µg/mL (≈ 6.74 µM) against Trichophyton rubrum [6]; 3.9 µg/mL (≈ 13.5 µM) against Trichophyton rubrum [7]; 3.57 µg/mL (≈ 12.3 µM) with Trichophyton rubrum [8]; 1.95 µg/mL (≈ 6.74 µM) in the experiment with Trichophyton benhamiae [9]; 0.97 µg/mL (≈ 3.35 µM) against Trichophyton benhamiae [10]; 1.95 µg/mL (≈ 6.74 µM) against Trichophyton benhamiae [11]. The MIC in the experiment on Trichophyton benhamiae [12] was determined as 1.95 µg/mL (≈ 6.74 µM); in the experiment on Trichophyton benhamiae [13], 0.97 µg/mL (≈ 3.35 µM).

For `CN(C/C=C/C#CC(C)(C)C)Cc1cccc2ccccc12` [TERBINAFINE], the MIC with Trichophyton rubrum [3] stood at 0.006 µg/mL (≈ 0.0206 µM); in the experiment on Trichophyton rubrum [4] it was 0.006 µg/mL (≈ 0.0206 µM); against Trichophyton rubrum [5], 0.006 µg/mL (≈ 0.0206 µM); against Trichophyton rubrum [6] it was 0.006 µg/mL (≈ 0.0206 µM); in the experiment with Trichophyton rubrum [7] it was 0.012 µg/mL (≈ 0.0412 µM); in the experiment with Trichophyton rubrum [8], 0.003 µg/mL (≈ 0.0103 µM). Moreover, the MIC with Trichophyton benhamiae [9], against Trichophyton benhamiae [10], with Trichophyton benhamiae [11], in the experiment on Trichophyton benhamiae [12] and against Trichophyton benhamiae [13] was 0.006 µg/mL (≈ 0.0206 µM) each time.
